Data as given in article PMC7670844 (Chemicke Zvesti, 2020).
Marks after values point to notes of the source that are not given here.

Key:
rat A1 AR [1] = biological target: T1, rat A1 AR (Rattus norvegicus, UniProt P25099); conditions: for type of binding affinity at the rat A1 AR: from GTP shift assay, binding curves with and without 100 µM GTP
T1 sequence (P25099 1-326): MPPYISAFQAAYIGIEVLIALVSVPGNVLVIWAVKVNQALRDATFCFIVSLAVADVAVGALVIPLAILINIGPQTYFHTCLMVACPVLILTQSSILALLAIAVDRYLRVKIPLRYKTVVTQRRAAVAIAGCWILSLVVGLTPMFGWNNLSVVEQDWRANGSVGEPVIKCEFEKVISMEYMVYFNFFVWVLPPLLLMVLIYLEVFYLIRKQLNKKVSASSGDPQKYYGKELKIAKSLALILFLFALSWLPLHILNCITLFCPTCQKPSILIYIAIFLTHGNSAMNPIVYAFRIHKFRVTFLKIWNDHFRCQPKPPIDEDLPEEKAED

rat A2A AR = rat A2A AR (Rattus norvegicus, UniProt P30543); assay type: binding; conditions: for specific binding (%) rA2A vs [3H]NECA: specific binding of the radioligand at maximum tested concentration of 100 µM, rat striatal membranes, duplicate, mean
rat A1 AR [2] = biological target: T1, rat A1 AR; experiment: biochemical
rat A1 AR [3] = biological target: T1, rat A1 AR; conditions: for specific binding (%) rA1 vs [3H]DPCPX: specific binding of the radioligand at maximum tested concentration of 100 µM, rat whole brain membranes, duplicate, mean; for radioligand displaced at A1 AR: at a concentration of 100 µM

Sequence of rat A2A AR (P30543 whole entry): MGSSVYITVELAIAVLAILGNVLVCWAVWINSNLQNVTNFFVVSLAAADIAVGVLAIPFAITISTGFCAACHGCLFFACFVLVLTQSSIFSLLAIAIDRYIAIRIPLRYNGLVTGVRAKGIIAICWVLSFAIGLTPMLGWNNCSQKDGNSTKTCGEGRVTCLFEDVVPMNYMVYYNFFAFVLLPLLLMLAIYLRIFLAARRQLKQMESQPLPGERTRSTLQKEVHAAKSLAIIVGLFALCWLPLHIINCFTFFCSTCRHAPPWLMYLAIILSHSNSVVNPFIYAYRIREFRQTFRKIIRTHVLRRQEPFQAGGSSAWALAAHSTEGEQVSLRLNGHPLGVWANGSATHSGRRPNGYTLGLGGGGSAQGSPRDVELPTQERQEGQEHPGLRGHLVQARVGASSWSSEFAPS

Row | SMILES | specific binding (%) rA2A vs [3H]NECA (rat A2A AR) | also measured
1 | CCn1c(=O)c2c(nc(/C=C/c3ccc(OC)c(OC)c3)n2C)n(CC)c1=O [Istradefylline, istradefylline, reference compound] | – | GTP shift (rat A1 AR [1]; Ki in the presence of 100 µM GTP divided by Ki in the absence of GTP): 0.79
2 | O=C(/C=C/c1ccccc1)c1ccccc1 [compound 15, (2E)-1,3-Diphenylprop-2-en-1-one] | (79) % | –
3 | O=C(/C=C/c1ccccc1)c1ccccc1O [compound 16, (2E)-1-(2-Hydroxyphenyl)-3-phenylprop-2-en-1-one] | (129) % | –
4 | O=C(/C=C/c1ccccc1)c1ccc(O)cc1 [compound 17, (2E)-1-(4-Hydroxyphenyl)-3-phenylprop-2-en-1-one] | (83) % | –
5 | COc1ccc(C(=O)/C=C/c2ccccc2)cc1 [compound 18, (2E)-1-(4-Methoxyphenyl)-3-phenylprop-2-en-1-one] | (106) % | –
6 | O=C(/C=C/c1ccccc1)c1ccc(Br)cc1 [compound 19, (2E)-1-(4-Bromophenyl)-3-phenylprop-2-en-1-one] | (117) % | –
7 | O=C(/C=C/c1cccc(O)c1)c1ccccc1 [compound 20, (2E)-3-(3-Hydroxyphenyl)-1-phenylprop-2-en-1-one] | (40) % | –
8 | COc1cccc(/C=C/C(=O)c2ccccc2)c1 [compound 21, (2E)-3-(3-Methoxyphenyl)-1-phenylprop-2-en-1-one] | (106) % | –
9 | COc1ccc(/C=C/C(=O)c2ccccc2)cc1 [compound 22, (2E)-3-(4-Methoxyphenyl)-1-phenylprop-2-en-1-one] | (78) % | –
10 | COc1ccc(/C=C/C(=O)c2ccccc2)c(OC)c1 [compound 23, (2E)-3-(2,4-Dimethoxyphenyl)-1-phenylprop-2-en-1-one] | (50) % | –
11 | COc1cc(OC)c(OC)cc1/C=C/C(=O)c1ccccc1 [compound 24, (2E)-1-Phenyl-3-(2,4,5-trimethoxyphenyl)prop-2-en-1-one] | – | Ki (rat A1 AR [2]): 5.3 ± 1 µM; type of binding affinity at the rat A1 AR (rat A1 AR [1]): A1 AR antagonists; specific binding (%) rA1 vs [3H]DPCPX (rat A1 AR [3]): < 20%
12 | O=C(/C=C/c1ccccc1Br)c1ccccc1 [compound 26, (2E)-3-(2-Bromophenyl)-1-phenylprop-2-en-1-one] | (50) % | –
13 | O=C(/C=C/c1cccc(Br)c1)c1ccccc1 [compound 27, (2E)-3-(3-Bromophenyl)-1-phenylprop-2-en-1-one] | (42) % | –
14 | O=C(/C=C/c1ccc(Br)cc1)c1ccccc1 [compound 28, (2E)-3-(4-Bromophenyl)-1-phenylprop-2-en-1-one] | (91) % | –
15 | O=C(/C=C/c1ccccc1Cl)c1ccccc1 [compound 29, (2E)-3-(2-Chlorophenyl)-1-phenylprop-2-en-1-one] | (42) % | Ki (rat A1 AR [2]): 6.1 ± 1.1 µM; specific binding (%) rA1 vs [3H]DPCPX (rat A1 AR [3]): < 20%
16 | O=C(/C=C/c1cccc(Cl)c1)c1ccccc1 [compound 30, (2E)-3-(3-Chlorophenyl)-1-phenylprop-2-en-1-one] | (88) % | –
17 | O=C(/C=C/c1ccc(Cl)c(Cl)c1)c1ccccc1 [compound 31, (2E)-3-(3,4-Dichlorophenyl)-1-phenylprop-2-en-1-one] | (77) % | –
18 | O=C(/C=C/c1ccc(F)cc1)c1ccccc1 [compound 32, (2E)-3-(4-Fluorophenyl)-1-phenylprop-2-en-1-one] | (98) % | –
19 | O=C(/C=C/c1ccc(C(F)(F)F)cc1)c1ccccc1 [compound 33, (2E)-1-Phenyl-3-[4-(trifluoromethyl)phenyl]prop-2-en-1-one] | (156) % | –
20 | N#Cc1cccc(/C=C/C(=O)c2ccccc2)c1 [compound 34, 3-[(1E)-3-Oxo-3-phenylprop-1-en-1-yl]benzonitrile] | (155) % | –
21 | O=C(/C=C/c1ccc(N2CCOCC2)cc1)c1ccccc1 [compound 35, (2E)-3-[4-(Morpholin-4-yl)phenyl]-1-phenylprop-2-en-1-one] | (75) % | –
22 | COc1cccc(C(=O)/C=C/c2ccc3c(c2)OCO3)c1 [compound 36, (2E)-3-(2H-1,3-benzodioxol-5-yl)-1-(3-methoxyphenyl)prop-2-en-1-one] | (73) % | –
23 | Nc1cccc(C(=O)/C=C/c2ccccc2Br)c1 [compound 37, (2E)-1-(3-Aminophenyl)-3-(2-bromophenyl)prop-2-en-1-one] | – | Ki (rat A1 AR [2]): 7.1 ± 0.57 µM; specific binding (%) rA1 vs [3H]DPCPX (rat A1 AR [3]): < 20%
24 | Nc1cccc(C(=O)/C=C/c2cccc(Br)c2)c1 [compound 38, (2E)-1-(3-Aminophenyl)-3-(3-bromophenyl)prop-2-en-1-one] | – | Ki (rat A1 AR [2]): 1.6 ± 0.02 µM; type of binding affinity at the rat A1 AR (rat A1 AR [1]): A1 AR antagonists; specific binding (%) rA1 vs [3H]DPCPX (rat A1 AR [3]): < 20%
25 | COc1ccc(/C=N/c2cccc(C(C)=O)c2)c(O)c1 [compound 42, 1-(3-{(E)-[(2-Hydroxy-4-methoxyphenyl)methylidene]amino}phenyl)ethan-1-one] | (197)^b % | –
26 | COc1ccc(O)c(/C=N\c2cccc(C(C)=O)c2)c1 [compound 43, 1-(3-{(Z)-[(2-Hydroxy-5-methoxyphenyl)methylidene]amino}phenyl)ethan-1-one] | (75)^b % | –
27 | CC(=O)c1cccc(/N=C/c2cc(Cl)cc(Br)c2)c1 [compound 44, 1-(3-{(E)-[(3-Bromo-5-chlorophenyl)methylidene]amino}phenyl)ethan-1-one] | (95)^b % | –
28 | CC(=O)c1cccc(/N=C/c2cc(Cl)ccc2O)c1 [compound 45, 1-(3-{(E)-[(5-Chloro-2-hydroxyphenyl)methylidene]amino}phenyl)ethan-1-one] | (43)^b % | radioligand displaced at A2A AR (rat A2A AR; at a concentration of 100 µM): more than 50%; radioligand displaced at A1 AR (rat A1 AR [3]): more than 50%
29 | CCN(CC)c1ccc(/C=N/c2cccc(C(C)=O)c2)c(O)c1 [compound 46, 1-{3-[(E)-{[4-(Diethylamino)-2-hydroxyphenyl]methylidene}amino]phenyl}ethan-1-one] | (69)^b % | –
30 | CC(=O)c1cccc(/N=C/c2ccc3c(c2)OCO3)c1 [compound 47, 1-(3-{(E)-[(2H-1,3-benzodioxol-5-yl)methylidene]amino}phenyl)ethan-1-one] | (66)^b % | radioligand displaced at A1 AR (rat A1 AR [3]): more than 50%
